Data taken from patent publication US8399490B2, “Insecticides” (Syngenta Crop Protection LLC, priority 2007, dated 2013).
Where two headings read alike, the source gives them in different places.

Legend:
[1] = tested on: Plutella xylostella (diamond back moth); assay: Example B3: Plutella xylostella (larvicide, feeding/residual contact activity, preventive), artificial diet MTP; type: in vivo; conditions: 120 h, L2 larvae on artificial diet, 5 days incubation
Method: Plutella xylostella (Diamond Back Moth) (Larvicide, Feeding/Residual Contact Activity, Preventive) 24-well microtiter plate (MTP) with artificial diet is treated with test solutions by pipetting. After drying, the MTP's are infested with larvae (L2) (10-15 per well). After an incubation period of 5 days, samples are checked for larval mortality, antifeedant and growth regulation.

[2] = tested on: Myzus persicae (green peach aphid); conditions: foliar, 144 h, read-out: activity
[3] = tested on: Heliothis virescens (tobacco budworm); assay: Example B2: Activity against Heliothis virescens (ovo-larvicide, feeding/contact activity, curative), eggs on artificial diet; type: in vivo; conditions: 96 h, 4 days incubation
Method: Activity Against Heliothis virescens (Tobacco Budworm) (Ovo-Larvicide, Feeding/Contact Activity, Curative) Eggs (0-24 h old) are placed in 24-well microtiter plate on artificial diet and treated with test solutions by pipetting. After an incubation period of 4 days, samples are checked for egg mortality, larval mortality, and growth regulation.

[4] = tested on: Spodoptera littoralis (Egyptian cotton leafworm); assay: Example B1: Activity against Spodoptera littoralis (larvicide, feeding/residual contact activity, preventive), cotton leaf discs; type: in vivo; conditions: foliar, 72 h, L1 larvae on cotton leaf discs, 3 days after treatment
Excerpt: Activity Against Spodoptera littoralis (Egyptian Cotton Leafworm)
(Larvicide, Feeding/Residual Contact Activity, Preventive)
The samples are checked for mortality, repellent effect, feeding behaviour, and growth regulation 3 days after treatment. In this test, compounds listed in Table P above show good activity. In particular compounds P.1, P.2, P.3, P.4, P.5, P.6, P.7, P.8, P.9, P.10, P.11, P.12, P.13, P.14, P.15, P.16, P.17, P.18, P.19, P.20, P.21, P.22, P.23, P.24, P.25, P.26, P.27, P.28, P.29, P.30, P.31, P.32, P.33, P.34, P.35, P.36, P.37, P.38, P.39, P.40, P.41, P.42, P.43, P.44, P.46, P.50, P.51, P.52, P.55, P.56, P.57, P.58, P.59, P.60, P61, P.66, P.67, P.68, P.69, P.70, P.71, P.72, P.73, P.74, P.75, P.76, P.77, P.78, P.83, P.84, P.87 and P.88 show an activity of over 80% at a concentration of 400 ppm.

[5] = tested on: Myzus persicae (green peach aphid); assay: Example B6: Activity against Myzus persicae (mixed population, systemic/feeding activity, curative), pea seedling roots in test solution; conditions: 144 h, read-out: activity
[6] = tested on: Diabrotica balteata (corn root worm); assay: Example B4: Diabrotica balteata (larvicide, feeding/residual contact activity, preventive), artificial diet MTP; type: in vivo; conditions: 120 h, L2 larvae on artificial diet, 5 days incubation
Method: Diabrotica balteata (Corn Root Worm) (Larvicide, Feeding/Residual Contact Activity, Preventive) 24-well microtiter plate (MTP) with artificial diet is treated with test solutions by pipetting. After drying, the MTP's are infested with larvae (L2) (6-10 per well). After an incubation period of 5 days, samples are checked for larval mortality, antifeedant and growth regulation.

Measured: pest or weed control at 400 ppm

CCNC(=O)c1c(NC(=O)c2cc(C(F)F)nn2-c2ncccc2Cl)c(Cl)cc2c1OCO2 [P.5]
> 80%: [1] | [2] | [3] | [4]

COc1cc(C(=O)Nc2c(Cl)cc3c(c2C(=O)NC(C)C)OCO3)n(-c2ncccc2Cl)n1 [P.12]
> 80%: [1] | [2] | [3] | [4]

Cc1cc2c(c(C(=O)NC(C)C)c1NC(=O)c1cc(Br)nn1-c1ncccc1Cl)OC(F)(F)O2 [P.14]
not listed: [6]
> 80%: all other assays above

CNC(=O)c1c(NC(=O)c2cc(C(F)(F)F)nn2-c2ncccc2Cl)c(Cl)cc2c1OC(F)(F)O2 [P.15]
> 80%: all assays above

CSCC(C)(C)NC(=O)c1c(NC(=O)c2cc(C(F)(F)F)nn2-c2ncccc2Cl)c(Cl)cc2c1OC(F)(F)O2 [P.16]
> 80%: all assays above

CNC(=O)c1c(NC(=O)c2cc(Br)nn2-c2ncccc2Cl)c(Cl)cc2c1OC(F)(F)O2 [P.18]
> 80%: all assays above

CC(C)NC(=O)c1c(NC(=O)c2cc(Br)nn2-c2ncccc2Cl)c(Cl)cc2c1OC(F)(F)O2 [P.19]
> 80%: all assays above

CSCC(C)(C)NC(=O)c1c(NC(=O)c2cc(Br)nn2-c2ncccc2Cl)c(Cl)cc2c1OC(F)(F)O2 [P.20]
> 80%: all assays above

O=C(NC1(C2CC2)CC1)c1c(NC(=O)c2cc(Br)nn2-c2ncccc2Cl)c(Cl)cc2c1OC(F)(F)O2 [P.21]
not listed: [5]
> 80%: all other assays above

CNC(=O)c1c(NC(=O)c2cc(Cl)nn2-c2ncccc2Cl)c(Cl)cc2c1OC(F)(F)O2 [P.22]
> 80%: all assays above

CC(C)NC(=O)c1c(NC(=O)c2cc(Cl)nn2-c2ncccc2Cl)c(Cl)cc2c1OC(F)(F)O2 [P.23]
> 80%: all assays above

CNC(=O)c1c(NC(=O)c2cc(Cl)nn2-c2ncccc2Cl)c(C)cc2c1OC(F)(F)O2 [P.29]
not listed: [2]
> 80%: all other assays above

COc1cc(C(=O)Nc2c(Cl)cc3c(c2C(=O)NC(C)C)C(O)CC3)n(-c2ncccc2Cl)n1 (stereo not shown) [P.66]
> 80%: [1] | [5] | [3] | [4]

Cc1cc2c(c(C(=O)NC3(C4CC4)CC3)c1NC(=O)c1cc(C(F)(F)F)nn1-c1ncccc1Cl)OCO2 [P.69]
> 80%: [1] | [6] | [3] | [4]

Cc1cc2c(c(C(=O)NC(C)(C)C)c1NC(=O)c1cc(C(F)(F)F)nn1-c1ncccc1Cl)OCO2 [P.70]
> 80%: [1] | [6] | [3] | [4]

Cc1cc2c(c(C(=O)NC3(C4CC4)CC3)c1NC(=O)c1cc(C(F)F)nn1-c1ncccc1Cl)OCO2 [P.71]
> 80%: [1] | [2] | [3] | [4]

Cc1cc2c(c(C(=O)NC(C)(C)C)c1NC(=O)c1cc(C(F)F)nn1-c1ncccc1Cl)OCO2 [P.73]
> 80%: [1] | [6] | [3] | [4]

Cc1cc2c(c(C(=O)NC(C)C)c1NC(=O)c1cc(C(F)F)nn1-c1ncccc1Cl)OCO2 [P.74]
not listed: [2]
> 80%: all other assays above

Cc1cc2c(c(C(=O)NC(C)C)c1NC(=O)c1cc(Br)nn1-c1ncccc1Cl)OCO2 [P.75]
> 80%: [1] | [6] | [3] | [4]

CCNC(=O)c1c(NC(=O)c2cc(OC)nn2-c2ncccc2Cl)c(C)cc2c1OCO2 [P.76]
> 80%: [1] | [5] | [3] | [4]

COc1cc(C(=O)Nc2c(C)cc3c(c2C(=O)NC(C)C)OCO3)n(-c2ncccc2Cl)n1 [P.77]
> 80%: [1] | [5] | [3] | [4]

Cc1cc2c(c(C(=O)NC3(C4CC4)CC3)c1NC(=O)c1cc(Br)nn1-c1ncccc1Cl)OCO2 [P.78]
> 80%: [1] | [6] | [3] | [4]

CNC(=O)c1c(NC(=O)c2cc(C(F)F)nn2-c2ncccc2Cl)c(Br)cc2c1OC(C)C2 (stereo not shown) [P.83]
not listed: [5]
> 80%: all other assays above

CNC(=O)c1c(NC(=O)c2cc(Br)nn2-c2ncccc2Cl)c(Br)cc2c1S(=O)(=O)C(C)C2 (stereo not shown) [P.88]
> 80%: [1] | [2] | [3] | [4]
